Data published in patent US9776972B2, “Pyrazole derivatives as arginine methyltransferase inhibitors and uses thereof” (priority 2013, dated 2017).

Biological target: T1, Human CARM1 (PRMT4) (Homo sapiens, UniProt Q86X55)
T1 construct: Flag-CARM1-His; made in house; host or cells: HEK 293F cells (BacMam baculovirus)
T1 sequence (Q86X55 1-585 isoform Q86X55-1): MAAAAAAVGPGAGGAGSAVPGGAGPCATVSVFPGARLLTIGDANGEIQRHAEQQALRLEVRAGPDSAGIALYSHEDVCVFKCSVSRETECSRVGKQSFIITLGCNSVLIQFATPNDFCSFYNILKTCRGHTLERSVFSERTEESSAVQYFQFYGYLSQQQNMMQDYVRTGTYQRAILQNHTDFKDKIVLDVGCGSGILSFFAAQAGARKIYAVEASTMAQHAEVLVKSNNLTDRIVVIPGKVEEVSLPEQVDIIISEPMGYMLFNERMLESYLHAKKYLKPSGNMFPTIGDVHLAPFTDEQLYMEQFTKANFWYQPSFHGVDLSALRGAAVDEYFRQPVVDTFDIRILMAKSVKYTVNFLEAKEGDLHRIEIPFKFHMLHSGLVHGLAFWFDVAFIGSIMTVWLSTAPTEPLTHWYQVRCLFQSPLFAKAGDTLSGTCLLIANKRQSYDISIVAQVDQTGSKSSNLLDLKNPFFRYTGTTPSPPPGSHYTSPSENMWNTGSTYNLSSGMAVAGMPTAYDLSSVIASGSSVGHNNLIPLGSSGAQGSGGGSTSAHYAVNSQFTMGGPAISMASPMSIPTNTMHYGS
Assay: CARM1 Biochemical Assay (3H-SAM Flashplate, peptide substrate)
Conditions: single experiment or average of multiple experiments
Description: S-adenosylmethionine (SAM), S-adenosylhomocysteine (SAH), bicine, Tween20, dimethylsulfoxide (DMSO), bovine skin gelatin (BSG), sodium butyrate and Tris(2-carboxyethyl)phosphine hydrochloride solution (TCEP) were purchased from Sigma-Aldrich at the highest level of purity possible. ^3H-SAM was purchase from American Radiolabeled Chemicals with a specific activity of 80 Ci/mmol. 384-well streptavidin Flashplates were purchased from PerkinElmer.
Peptide representative of human histone H3 residues 16-30 was synthesized with an N-terminal linker-affinity tag motif and a C-terminal amide cap by 21st Century Biochemicals. […] The sequence was Biot-Ahx-[…]-amide and contained a monomethylated arginine at position 26 (SEQ ID NO.: 14).
Recombinant baculovirus were generated according to Bac-to-Bac kit instructions (Life Technologies). […] Infections were carried out at 37° C. for 48 hours, harvested by centrifugation, and stored at −80° C. for purification.
Column was washed with 500 mM NaCl in buffer A and Flag-CARM1-His was eluted with 200 ug/ml FLAG peptide in buffer A. Pooled fractions were dialyzed in 20 mM Tris, 150 mM NaCl, 5% glycerol and 1 mM DTT, pH 7.8.
General Procedure for CARM1 Enzyme Assays on Peptide Substrates.
The assays were all performed in a buffer consisting of 20 mM Bicine (pH=7.6), 1 mM TCEP, 0.005% BSG, and 0.002% Tween 20, prepared on the day of use. […] DMSO (1 ul) was added to Columns 11, 12, 23, 24, rows A-H for the maximum signal control and 1 ul of SAH, a known product and inhibitor of CARM1, was added to columns 11, 12, 23, 24, rows I-P for the minimum signal control. A cocktail (40 ul) containing the CARM1 enzyme was added by Multidrop Combi (Thermo-Fisher). The compounds were allowed to incubate with CARM1 for 30 min at room temperature, then a cocktail (10 ul) containing ^3H-SAM and peptide was added to initiate the reaction (final volume=51 ul). […] The assays were stopped by the addition of non-radiolabeled SAM (10 ul) to a final concentration of 300 uM, which dilutes the ^3H-SAM to a level where its incorporation into the peptide substrate is no longer detectable. 50 ul of the reaction in the 384-well polypropylene plate was then transferred to a 384-well Flashplate and the biotinylated peptides were allowed to bind to the streptavidin surface for at least 1 hour before being washed once with 0.1% Tween20 in a Biotek ELx405 plate washer. The plates were then read in a PerkinElmer TopCount plate reader to measure the quantity of ^3H-labeled peptide bound to the Flashplate surface, measured as disintegrations per minute (dpm) or alternatively, referred to as counts per minute (cpm).
Where dpm=disintegrations per minute, cmpd=signal in assay well, and min and max are the respective minimum and maximum signal controls.
Where top and bottom are the normally allowed to float, but may be fixed at 100 or 0 respectively in a 3-parameter fit. The Hill Coefficient normally allowed to float but may also be fixed at 1 in a 3-parameter fit. Y is the % inhibition and X is the compound concentration.

Row | SMILES | IC50
1 | CNCCN(C)Cc1cn(C2CC2)nc1-c1ccc(F)cc1 [Compound 13] | 2.24 µM
2 | CNCCN(C)Cc1cnn(C2CC2)c1-c1ccc(F)cc1 [Compound 14] | 0.97 µM
3 | CNCCN(C)Cc1cn(C(C)C)nc1-c1ccc(F)cc1 [Compound 15] | 3.4 µM
4 | CNCCN(C)Cc1cnn(C(C)C)c1-c1ccc(F)cc1 [Compound 16] | 6.74 µM
5 | CNCCN(C)Cc1cn[nH]c1-c1ccc(C#N)cc1 [Compound 17] | 1.56 µM
6 | CNCCN(C)Cc1cn[nH]c1-c1cc(F)cc(F)c1 [Compound 18] | 0.656 µM
7 | CN(CCN)Cc1n[nH]cc1-c1ccc(C2CCOCC2)cc1 [Compound 145] | 4.92 µM
8 | COc1ccc(-c2n[nH]cc2CN(C)CCN)c(Cl)c1 [Compound 146] | 5.77 µM
9 | CN(CCN)Cc1c[nH]nc1-c1cccc(N(C)C)c1 [Compound 149] | 1.3 µM
10 | CCOC(=O)c1cccc(-c2n[nH]cc2CN(C)CCN)c1 [Compound 150] | 2.42 µM
11 | COc1cc(F)ccc1-c1n[nH]cc1CN(C)CCN [Compound 151] | 8.32 µM
12 | Cc1cc(F)ccc1-c1n[nH]cc1CN(C)CCN [Compound 152] | 6.87 µM
13 | COc1ccc(-c2n[nH]cc2CN(C)CCN)cc1 [Compound 153] | 2.06 µM
14 | CN(CCN)Cc1c[nH]nc1-c1cc(Cl)ccc1F [Compound 156] | 6.74 µM
15 | Cc1ccccc1-c1n[nH]cc1CN(C)CCN [Compound 161] | 6.13 µM
16 | Cc1ccc(-c2n[nH]cc2CN(C)CCN)cc1 [Compound 162] | 0.612 µM
17 | CCn1cc(CN(C)CCNC)c(-c2ccc(OC(C)C)cc2)n1 [Compound 213] | 0.2 µM
18 | CNCCN(C)Cc1cn(C2CCCC2)nc1-c1ccc(OC(C)C)cc1 [Compound 214] | 0.168 µM
19 | CNCCN(C)Cc1cn(C2CCOC2)nc1-c1ccc(OC(C)C)cc1 (centres unmarked) [Compound 215] | 0.299 µM
20 | CNCCN(C)Cc1cnn(C2CCOC2)c1-c1ccc(OC(C)C)cc1 (centres unmarked) [Compound 216] | 0.285 µM
21 | CNCCN(C)Cc1cn(Cc2ccccc2)nc1-c1ccc(OC(C)C)cc1 [Compound 217] | 0.62 µM
22 | C=CCn1cc(CN(C)CCNC)c(-c2ccc(OC(C)C)cc2)n1 [Compound 218] | 0.414 µM
23 | C=CCn1ncc(CN(C)CCNC)c1-c1ccc(OC(C)C)cc1 [Compound 219] | 0.142 µM
